# Experiments:
# [1] = tested on: stroke-prone spontaneously hypertensive rats (SHRSP/Izm, male); experiment: Evaluation of blood fluidity: whole blood transit time through microchannel array (MC-FAN) after 28 days oral administration; assay type: in vivo, rat; settings: 50 mg/Kg/day oral; for Transit time: 7 μm microchannels, 20 cm water column
# Procedure: Tests were started using stroke-prone spontaneously hypertensive rats (SHRSP/Izm, male) 6 weeks old after acclimating the rats 1 week or longer. The rats were all fed under the conditions of 20 to 26° C. temperature, 40 to 70% humidity and 12 hr. lighting time (from 6 a.m. to 6 p.m.).
# The rats were administered with samples of the example of the present invention and samples of the comparative example once a day for continuous 28 days from a day when the rats reached 8 weeks of age. For administration, samples were orally administered by forced administration using a disposable polypropylene syringe attached with a metallic oral sonde. For the example, each sample contained a chlorogenic acid (supplied by Sigma Chemical Co., Ltd.) of 50 mg/Kg (body weight)/day, while the comparative example used the equal dose of injection grade water (supplied by Otsuka Pharmaceutical Co., Ltd., Tokyo, Japan) as samples. The preferred example also used the injection grade water as a medium for samples.
# For feeds, the rats had been fed freely with a solid feed (CRF-1 supplied by Oriental Yeast Co., Ltd., Tokyo, Japan) for a period from the arrival to grouping of rats and with another solid feed (SP (a feed containing 0.4% common salt) supplied by the same manufacturer as above) for a period succeeding to the grouping. For drinking water, tap water was used in the period from the receipt to grouping of rats and 1% brine in the period after the grouping, respectively, for free uptake.
# After administering rats with a specified sample for 28 continuous days, blood was sampled from each rat using a VENOJECT II vacuum blood collection tube of 7 mL size (available from Terumo Corporation, Tokyo, Japan) preinfused with 350 μL heparin as an anticoagulant (equivalent to 5% of whole blood). Upon sampling, the blood was agitated quickly to obtain blood samples for measurement. For blood measurement, a cellular microrheological measurement system was used (MC-FAN available from Hitachi Haramachi Electronics Co., Ltd., Ibaragi, Japan). The system incorporates an array of microchannels as a model of blood capillaries to measure the flowing characteristics of blood cells under constant differential pressure. As the model of blood capillaries, a silicon monocrystal basal plate having microchannels of 7 μm in width was used.
# First, the time was measured for a 100 μL physiological saline solution to pass through the blood capillary model under differential pressure of 20 cm water column (the measured value to be used later for correction). Then the time was measured (in sec.) for a 100 μL each blood sample to pass through the blood capillary model under the same conditions. The time was measured every 10 μL fraction of sample flow. Each blood sample was microscopically observed as it flowed through the blood capillary model.
# [2] = tested on: stroke-prone spontaneously hypertensive rats (SHRSP/Izm, male); experiment: Evaluation of effects of improving cerebrovascular diseases: development of cerebral apoplexy, histopathological examination; assay type: in vivo, rat; settings: 50 mg/Kg/day oral, 49 days
# Procedure: Tests were started using stroke-prone spontaneously hypertensive rats (SHRSP/Izm, male) 6 weeks old after acclimating the rats I week or longer. The rats were all fed under the conditions of 20 to 26° C. temperature, 40 to 70% humidity and 12 hr. lighting time (from 6 a.m. to 6 p.m.). Rat was administered with samples of the preferred example of the present invention and samples of the comparative example once a day for continuous 49 days from a day when the rats reached 8 weeks of age. For administration, samples were orally administered by forced administration using a disposable polypropylene syringe attached with a metallic oral sonde. For the preferred example, each sample comprised a chlorogenic acid (supplied by Sigma Chemical Co., Ltd.) of 50 mg/Kg (body weight)/day, while the comparative example used the equal dose of injection grade water (supplied by Otsuka Pharmaceutical Co., Ltd., Tokyo, Japan) as samples. The preferred example also used the injection grade water as a medium for samples. For feeds, the rats were fed freely with a solid feed (CRF-1 supplied by Oriental Yeast Co., Ltd., Tokyo, Japan) for a period from the arrival to grouping of rats and with another solid feed (SP (a feed containing 0.4% common salt) supplied by the same manufacturer as above) for a period succeeding to the grouping. […]
smiles,measurement,setting,value
"O=C(/C=C/c1ccc(O)c(O)c1)O[C@@H]1C[C@](O)(C(=O)O)C[C@@H](O)[C@H]1O [Preferred example, chlorogenic acid]","Transit times versus comparative example (injection grade water), in words",[1],shorter transit times
same,Transit time,[1]; blood volume passed 10 μL,4.87 s
same,Transit time,[1]; blood volume passed 20 μL,9.67 s
same,Transit time,[1]; blood volume passed 30 μL,14.31 s
same,Transit time,[1]; blood volume passed 40 μL,19.34 s
same,Transit time,[1]; blood volume passed 50 μL,24.59 s
same,Transit time,[1]; blood volume passed 60 μL,30.03 s
same,Transit time,[1]; blood volume passed 70 μL,35.90 s
same,Transit time,[1]; blood volume passed 80 μL,41.65 s
same,Transit time,[1]; blood volume passed 90 μL,47.58 s
same,Transit time,[1]; blood volume passed 100 μL,53.38 s
same,"Development of cerebral apoplexy versus comparative example (injection grade water), in words",[2],definitely suppressed development of cerebral apoplexy
same,Cerebral apoplexy developed (number of rats),[2]; of 10 rats used,3

# From patent US20080188563A1, “BLOOD FLUIDITY IMPROVING AGENT” (KAO CORPORATION, priority 2002, published 2008)
